Experimental data: paper PMC4871228 (European journal of medicinal chemistry, 2015)
Read-outs that look alike come from different tables or passages of the source. One block for each compound: values may come before it.

Key:
[1] = molecular target: T1, KAT8 (Homo sapiens, UniProt Q9H7Z6); assay: Isothermal titration calorimetry, titration to KAT8; type: binding; conditions: ITC, Ac-CoA vs KAT8
T1 sequence (Q9H7Z6 1-458): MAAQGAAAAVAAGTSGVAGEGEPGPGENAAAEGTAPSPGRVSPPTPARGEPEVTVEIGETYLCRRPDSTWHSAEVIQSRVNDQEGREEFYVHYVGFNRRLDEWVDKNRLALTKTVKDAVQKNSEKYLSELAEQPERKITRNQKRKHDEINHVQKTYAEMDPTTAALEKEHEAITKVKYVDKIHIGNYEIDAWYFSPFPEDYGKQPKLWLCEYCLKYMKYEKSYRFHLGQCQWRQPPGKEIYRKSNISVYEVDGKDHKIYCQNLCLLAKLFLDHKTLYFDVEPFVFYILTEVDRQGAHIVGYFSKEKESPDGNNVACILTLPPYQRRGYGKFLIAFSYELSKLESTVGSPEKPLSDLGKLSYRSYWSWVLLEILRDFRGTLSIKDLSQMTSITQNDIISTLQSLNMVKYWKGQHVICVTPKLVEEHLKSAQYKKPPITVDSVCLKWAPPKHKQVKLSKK

[2] = molecular target: T1, KAT8; assay: Steady-state enzyme kinetics of KAT8 substrates; type: biochemical; conditions: for Km: read-out: Km of Ac-CoA
[3] = molecular target: T1, KAT8; assay: KAT8 inhibition, fluorescence-based assay detecting CoA with CPM; type: biochemical; conditions: within the investigated range of concentrations (up to 400 µM)

-TΔS [1]: −17228 cal/mol/degK
Kd [1]: 8.7 ± 1.2 µM
N (stoichiometry) [1]: 0.95
ΔG [1]: −6758
ΔH [1]: 10.47 ± 0.47 kcal/mol
Vmax of Ac-CoA ([2]; 15 µM histone H4 peptide): 3.4 ± 0.2 pmol/min
kcat of Ac-CoA ([2]; 15 µM histone H4 peptide): 0.0033 ± 0.00033 s⁻¹
Vmax of Ac-CoA ([2]; 30 µM histone H4 peptide): 4.5 ± 0.3 pmol/min
kcat of Ac-CoA ([2]; 30 µM histone H4 peptide): 0.005 ± 0.00033 s⁻¹
Vmax of Ac-CoA ([2]; 60 µM histone H4 peptide): 9.9 ± 0.3 pmol/min
kcat of Ac-CoA ([2]; 60 µM histone H4 peptide): 0.012 ± 0.00067 s⁻¹
Vmax of Ac-CoA ([2]; 90 µM histone H4 peptide): 14.7 ± 0.6 pmol/min
kcat of Ac-CoA ([2]; 90 µM histone H4 peptide): 0.0183 ± 0.001 s⁻¹
Km ([2]; 15 µM histone H4 peptide): 1.1 ± 0.3 µM
Km ([2]; 30 µM histone H4 peptide): 1.2 ± 0.3 µM
Km ([2]; 60 µM histone H4 peptide): 2.1 ± 0.3 µM
Km ([2]; 90 µM histone H4 peptide): 2.8 ± 0.5 µM
Compound: CC(=O)SCCNC(=O)CCNC(=O)[C@H](O)C(C)(C)COP(=O)(O)OP(=O)(O)OC[C@H]1O[C@@H](n2cnc3c(N)ncnc32)[C@H](O)[C@@H]1OP(=O)(O)O [Ac-CoA, acetyl coenzyme A]

KAT8 inhibitory potency (in words) [3]: loss of potency
Compound: O=C(O)c1c(O)cccc1CCCCCCCCCCCO [Compound 8b]

KAT8 inhibitory potency (in words) [3]: completely lose their affinity
Compound: CCCCCc1ccc(O)c(C(=O)O)c1 [Compound 11c]

KAT8 inhibitory potency (in words) [3]: completely removed activity
Compound: CCCCCCCSCC(=O)c1ccccc1O [Compound 13]

KAT8 inhibitory potency (in words) [3]: completely lose their affinity
Compound: CCCCCc1cccc(O)c1C(=O)O [Compound 14]
